Data published in patent US20080038374A1, “New Use” (Lipopeptide AB, priority 2004, published 2008).
“And” between values parts separate entries of the source, which are not always exact repeats. Equal entries are not always repeated.

Experiments:
hCAP18 promoter = experiment: Stimulation of the hCAP18 promoter at different concentrations (FIG. 4); type: cell-based, human; conditions: tested at 1, 10, 100 and 1000 nM
Method: To assess whether physiological levels were sufficient to induce the stimulation of the hCAP18 promoter, the study was performed at the different concentrations 1, 10, 100 and 1000 nM of 1,25-(OH)2-D3 and 25-OH-D3 (FIG. 4). […] The physiologic serum concentration of 25-OH-vitamin D3 is between 20 nM and 125 nM, whereas the 1,25-(OH)2-D3 is present in pM concentration. A dosage form of a vitamin D compound for topical administration includes for instance about 1-100, preferably 5-50 μg vitamin D compound per gram composition.

dermatitis = conditions: topical, 0.03-1.0 μg/g of composition; type of dermatitis not stated; cited from earlier work
acute wounds = conditions: Wistar rats, intraperitonial; cited from earlier work
hCAP18 [1] = experiment: Expression of hCAP18 mRNA in human primary keratinocytes by Real-Time PCR; type: cell-based
Method: Human neonatal epidermal keratinocytes were obtained from Cascade Biologics, Inc. (Lot # 1C1145; Port-land, OR) and cultured in EpiLife serum-free keratinocyte growth medium (Cascade Biologics, Inc.) containing growth supplements and a calcium concentration of 0.06 mM. Cells at passage 3 were allowed to grow for three days to approximately 60% confluence. For calcium switch experiments, 1.5 mM CaCl2 (added from a 1 M stock solution) was added to the plates and after 48 hours the cells were regarded as differentiated (observed as an induction of mRNA expression of the two keratinocyte markers transglutaminase and cellular retinoic acid-binding protein II). The compounds assayed were 25-hydroxy-cholecalciferol (25-OH-D3), 1,25-dihydroxycholecalciferol (1,25-(OH)2-D3), and calcipotriol/MC 903 (Leo Pharmaceutical, Denmark). Their effect on hCAP18 expression was monitored by quantitivate PCR analysis.
Keratinocytes were grown as above and treated with said compounds for 4 h. RNA was extracted with the RNeasy kit (Qiagen) and reverse transcribed with a first strand synthesis kit (Amersham-Pharmacia). RNA was quantified by Real-Time PCR on an ABI Prism 7700 (Applied Biosystems) using 5 ng of cDNA according to standard protocols. The samples were evaluated in triplicates. Sequences were 5′-[…]-3′ and 5′-[…]-3′ for the primers, and 5′-[…]-3′ for the fluorigenic probe. The samples were normalized by quantification of 18S-RNA (Assay on Demand, Applied Biosystems).
To assess the specificity of the vitamin D regulation on the hCAP18 gene, the vitamin D3 precursor 7-dehydrocholesterol (7-DHC) was assayed at a concentration of 1 μM as in Example 1. 7-DHC had no effect on hCAP18 expression. […] Assays were performed and measured as above. The effect of 1,25-(OH)2-D3 is shown for comparison.

angiogenesis = conditions: cited from earlier work
hCAP18 [2] = conditions: keratinocytes and leukocytes in vitro; cited from earlier work
hCAP18 [3] = experiment: hCAP18/LL-37 expression in skin of healthy volunteers after topical application; type: in vivo, human; conditions: 0.002% solution topical, 4 days, three healthy volunteers
Method: To assay whether 1,25-(OH)2-D3 stimulated hCAP18 expression in vivo, we applied 1,25-(OH)2D3 to the skin of three healthy individuals.
A stock solution of 4 mM 1,25-dihydroxyvitamin D3 in isopropanol was diluted in ethanol:propylene glycol [70:30] to a final vitamin D concentration of 0.002%. The vehicle containing ethanol 96% and propylene glycol [70:30] with 0.5 mg/ml BHT (butylated hydroxy toluene) served as control. In a room with dim light, the vitamin D and the control were locally applied to the skin (the right and left upper arm respectively) of three healthy volunteers. The test area of 2×2.5 cm on each arm was cleaned with saline solution (NaCl 0.9) before application. Evaporation time for the solutions of vitamin D and the vehicle varied between 8 and 15 minutes. The tested area was then covered with plastic film and band-aid (Gladpack, Melolin and Mefix). After 4 days the band-aid and the plastic film was removed and the test area was rapidly cleaned with 40% ethanol. Punch biopsies (4 mm) were obtained from the test area (after infiltration anesthesia with 2-3 ml Xylocaln with epinefrin) and were frozen instantly. […] Protein concentrations were measured by Protein Assay Kit (Bio-Rad Laboratories, Hercules Calif.) based on the Bradford method (Bradford, 1976) and samples were diluted to a final protein concentration of 1 mg per ml. […]

hCAP18 [4] = experiment: hCAP18 mRNA in skin of atopic dermatitis patients, Real-Time PCR; type: in vivo, human; design: hCAP18 mRNA, Non-lesional skin, Treated / hCAP18 mRNA, Lesional skin, Treated: unit not given here; conditions: 0.002% topical, 4 days, one patient per row
Method: To assay whether 1,25-(OH)2-D3 stimulated hCAP18 expression in atopic dermatitis, we applied 1,25-(OH)2-D3 on the skin of four individuals, two females and two men, with active atopic dermatitis. The patients had suffered from the eczema for 11-30 years. The diagnosis was made by a dermatologist. A stock solution of 4 mM 1,25-(OH)2-D3 in isopropanol was diluted in ethanol:propylene glycol (70:30) to a final concentration of 0.002%. To prevent deactivation of 1,25-(OH)2-D3, the procedure was performed in a room with dim light. The 1,25-(OH)2-D3 were locally applied on lesional and non-lesional skin area of patients. The skin surface was cleaned with saline solution (NaCl 0.9) before application. The treated skin area was measured to 2×2.25 cm. Evaporation time for the solutions of 1,25-(OH)2-D3 varied between 8 and 15 minutes. The skin area was then covered with plastic film and band-aid (Quickpack: Haushalt und Hygiene GmbH, Renningen, Germany; Melolin: Smith and Nephew, Hull, UK; Mefix: Molnlycke A B, Gothenburg, Sweden). After 4 days the band-aid and the plastic film were removed and the skin areas were rapidly cleaned with 40% ethanol. Punch biopsies (4 mm) were obtained from the treated skin areas (after infiltration anesthesia with 2-3 ml Xylocaln with epinephrin) and frozen instantly. On the first day, control biopsies were also obtained from non-treated lesional and non-lesional skin and the tissues were snap-frozen as described. RNA was extracted and hCAP18 mRNA expression determined by Real-Time PCR as described above in Example 1.

Q: Which “level down to which a substantial portion of stimulation remained” value (hCAP18 promoter) does the source give for `C=C1CC[C@H](O)C/C1=C/C=C1\CCC[C@]2(C)[C@@H]([C@H](C)CCCC(C)(C)O)CC[C@@H]12` [25-OH-D3, 25-hydroxy-cholecalciferol] here?
A: The value was 10 nM.

Q: For `C=C1CC[C@H](O)C/C1=C/C=C1\CCC[C@]2(C)[C@@H]([C@H](C)CCCC(C)C)CC[C@@H]12` [cholecalciferol], which effect on dermatitis (dermatitis) is on record?
A: Its effect on dermatitis is “no effect”.

Q: What about the “re-epithelization of acute wounds” value (acute wounds) of the same molecule?
A: The value was “accelerates”.

Q: And the wound breaking strength (acute wounds)?
A: Its wound breaking strength is “increases”.

Q: For `C=C1/C(=C\C=C2/CCC[C@]3(C)[C@@H]([C@H](C)/C=C/[C@H](C)C(C)(C)O)CC[C@@H]23)C[C@@H](O)C[C@@H]1O` [1,25-(OH)2-D2, 1,25-dihydroxyergocalciferol], which “activity on hCAP18 expression compared with 1,25-(OH)2-D3” value (hCAP18 [1]; concentration not given) is on record?
A: The value was “activity comparable to 1,25-(OH)-D3”.

Q: With `CC(C)CCC[C@@H](C)[C@H]1CC[C@H]2C3=CC=C4C[C@@H](O)CC[C@]4(C)[C@H]3CC[C@]12C` [7-DHC, 7-dehydrocholesterol] as the molecule, how does the “effect on hCAP18 expression” value (hCAP18 [1]; 1 μM, as in Example 1) read?
A: Its value is “no effect”.

Q: With `C=C1/C(=C\C=C2/CCC[C@]3(C)[C@@H]([C@H](C)CCCC(C)C)CC[C@@H]23)C[C@@H](O)C[C@@H]1O` [1α-OH-cholecalciferol, 1-alpha-hydroxycholecalciferol] as the molecule, how does the effect on dermatitis (dermatitis) read?
A: Its effect on dermatitis is “marked effect”.

Q: For “LL-37/hCAP18: endogenous 37 amino acid antimicrobial peptide released by proteolytic cleavage of hCAP18 (LLGDFFRKSKEKIGKEFKRIVQRIKDFLRNLVPRTES; Antibacterial peptide LL-37; UniProt P49913 134-170, looked up)”, which angiogenesis (angiogenesis) is on record?
A: The angiogenesis was “induces functionally important angiogenesis”.

Q: For `C=C1CC[C@H](O)C/C1=C/C=C1\CCC[C@]2(C)[C@@H]([C@H](C)/C=C/[C@H](C)C(C)C)CC[C@@H]12` [ergocalciferol], which effect on dermatitis (dermatitis) is on record?
A: Its effect on dermatitis is “no effect”.

Q: With `[Ca+2].[Cl-].[Cl-]` [calcium, CaCl2] as the molecule, how does the “increase of hCAP18 expression by induction of differentiation” value (hCAP18 [1]; 1.5 mM CaCl2, 48 hours, keratinocytes) read?
A: The value was “about 1.5 fold”.

Q: With `C=C1/C(=C\C=C2/CCC[C@]3(C)[C@@H]([C@H](C)CCCC(C)(C)O)CC[C@@H]23)C[C@@H](O)C[C@@H]1O` [1,25-(OH)2-D3, 1,25-dihydroxy-cholecalciferol] as the molecule, how does the effect on dermatitis (dermatitis) read?
A: Its effect on dermatitis is “marked effect”.

Q: And the “expression of hCAP18” value (hCAP18 [2])?
A: Its value is “directly induces”.

Q: What about the “expression of hCAP18 and production of LL-37 in human skin in vivo” value (hCAP18 [3]) of the same molecule?
A: Its value is “Up-Regulates”.

Q: And the “level down to which a substantial portion of stimulation remained” value (hCAP18 promoter)?
A: The value was 10 nM.

Q: What about the “Increase (treated/untreated), Lesional skin” value (hCAP18 [4]; lesional skin) of the same molecule?
A: The value was 5638% and 79756% and 977% and 220%.

Q: And the “hCAP18 mRNA, Lesional skin, Treated” value (hCAP18 [4]; lesional skin)?
A: Its value is 1093 and 539 and 64 and 29.

Q: And the “Increase (treated/untreated), Non-lesional skin” value (hCAP18 [4]; non-lesional skin)?
A: Its value is 13104% and 520% and 841% and 459%.

Q: What about the “hCAP18 mRNA, Non-lesional skin, Treated” value (hCAP18 [4]; non-lesional skin) of the same molecule?
A: Its value is 739.4 and 24.8 and 24.2 and 8.1.

Q: With `C=C1CC[C@H](O)C/C1=C/C=C1\CCC[C@]2(C)[C@@H]([C@H](C)CC[C@@H](O)C(C)(C)O)CC[C@@H]12` [24,25-dihydroxycholecalciferol] as the molecule, how does the effect on dermatitis (dermatitis) read?
A: The effect on dermatitis was “no effect”.
